{
  "source": "patent EP2948433B1",
  "about": "“ATGLISTATIN AS LIPASE INHIBITOR” (Technische Universität Graz, priority 2013, dated 2014)",
  "key": {"[1]": {"tested_on": "AML-12 mouse hepatocytes", "assay": "MTT-based in vitro viability (toxicity) test", "type": "cell-based", "conditions": "at concentrations ≥100 µM", "method": "Toxicity test for Atglistatin in AML-12 mouse hepatocytes. For MTT-based in vitro viability assays, cells were seeded at an initial density of 1x10^4 cells per well in 96-well plates and cultured under standard conditions for twenty-four hours. The next day, cells were pretreated with different concentrations of Atglistatin dissolved in DMSO or Cisplatin dissolved in dimethylformamide (DMF) (Sigma-Aldrich) as positive control for two hours. Medium was replaced by an identical fresh medium and incubated again for the indicated timepoints. Thereafter cells were incubated for 3 hours with 100 µl Thiazolyl Blue Tetrazolium Bromide (MTT). The resulting violet formazan crystals were dissolved by adding 100 µl of MTT Solubilization Solution (0.1% NP-40, 4 mM HCl and anhydrous isopropanol). After complete dissolution of the formazan product, absorbance was measured at 595 nm and 690 nm. The values obtained at 690 nm were subtracted from the 595 nm measurements."}, "[2]": {"biological_target": "T1, pancreatic lipase (Sus scrofa, UniProt P00591)", "T1 construct": "pancreatic lipase (from porcine pancreas, Sigma); purchased Sigma; host or cells: porcine pancreas", "T1 sequence (P00591 1-450)": "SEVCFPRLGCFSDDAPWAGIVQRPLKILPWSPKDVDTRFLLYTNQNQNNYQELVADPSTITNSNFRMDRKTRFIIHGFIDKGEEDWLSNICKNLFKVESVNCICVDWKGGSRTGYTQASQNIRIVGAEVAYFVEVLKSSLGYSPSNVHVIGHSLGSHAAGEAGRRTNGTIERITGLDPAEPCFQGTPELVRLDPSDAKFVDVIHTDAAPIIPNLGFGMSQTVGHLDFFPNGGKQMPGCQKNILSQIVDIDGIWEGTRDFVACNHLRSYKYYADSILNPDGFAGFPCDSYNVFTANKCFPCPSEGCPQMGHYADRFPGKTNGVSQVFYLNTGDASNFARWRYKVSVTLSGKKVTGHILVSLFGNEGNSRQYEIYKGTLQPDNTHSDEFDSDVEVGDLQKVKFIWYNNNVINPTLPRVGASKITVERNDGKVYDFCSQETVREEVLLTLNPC", "assay": "Pancreatic lipase activity, triolein substrate", "type": "biochemical, porcine", "conditions": "Fig. 2D", "method": "• Figure 1. Structure of compounds 1 to 3 (reference) and compound 4 (atglistatin) and effect on ATGL activity. For determination of lipase activity, lysates of E. coli overexpressing recombinant strep-tagged ATGL and CGI-58 were incubated with a substrate containing radiolabeled [9,10-3H(N)]-triolein. Subsequently, FA were extracted and quantified by liquid scintillation counting. Lysates of cells expressing empty vector were set as blank. Inhibitors were solubilized in DMSO and added at the indicated concentrations. DMSO alone was used as negative control. (A) Structure and IC50 values of compounds 1-4. (B) Dose-dependent inhibition of ATGL in the presence of compound 3 and 4. […] (C) Lineweaver-Burk plots for kinetic analysis of ATGL inhibition. Experiments were performed at varying concentrations of substrate (0.05 - 3 mM) in presence and absence of compound 4 (Atglistatin). […] Lipase activity of ATGL, HSL, lipoprotein lipase, and pancreatic lipase was determined using triolein as substrate. MGL activity was detected in the presence of rac-(1,3)-monooleoylglycerol as substrate. […] The release of FA (A) and glycerol (B) in the media was determined using commercial kits. […] At the indicated timepoints blood was taken retroorbitally and plasma parameters were measured using commercial kits. […] 8 h after gavage blood was taken retroorbitally and plasma parameters were measured using commercial kits. […]"}, "[3]": {"tested_on": "TG hydrolase activity of wild-type WAT", "assay": "TG hydrolase activity in WAT lysates of wild-type mice", "type": "biochemical", "conditions": "up to, at a concentration of 40 µM", "experimental": "For determination of lipase activity, lysates of E. coli overexpressing recombinant strep-tagged ATGL and CGI-58 were incubated with a substrate containing radiolabeled [9,10-3H(N)]-triolein. Subsequently, FA were extracted and quantified by liquid scintillation counting. Lysates of cells expressing empty vector were set as blank. Inhibitors were solubilized in DMSO and added at the indicated concentrations. DMSO alone was used as negative control. […] Data are presented as mean +/-S.D. of triplicate determinations. […] Lipase activity of ATGL, HSL, lipoprotein lipase, and pancreatic lipase was determined using triolein as substrate. MGL activity was detected in the presence of rac-(1,3)-monooleoylglycerol as substrate. Inhibitors were solubilized in DMSO and added at the indicated concentrations. DMSO alone was used as negative control. (A) Dose-dependent inhibition of TG hydrolase activity in WAT lysates obtained from wild-type and ATGL-ko mice."}, "[4]": {"tested_on": "WAT organ cultures", "assay": "Lipolysis of isolated WAT organ cultures", "type": "cell-based, C57BI6 mice", "conditions": "8 h incubation", "method": "• Figure 1. Structure of compounds 1 to 3 (reference) and compound 4 (atglistatin) and effect on ATGL activity. For determination of lipase activity, lysates of E. coli overexpressing recombinant strep-tagged ATGL and CGI-58 were incubated with a substrate containing radiolabeled [9,10-3H(N)]-triolein. Subsequently, FA were extracted and quantified by liquid scintillation counting. Lysates of cells expressing empty vector were set as blank. Inhibitors were solubilized in DMSO and added at the indicated concentrations. DMSO alone was used as negative control. (A) Structure and IC50 values of compounds 1-4. (B) Dose-dependent inhibition of ATGL in the presence of compound 3 and 4. […] (C) Lineweaver-Burk plots for kinetic analysis of ATGL inhibition. Experiments were performed at varying concentrations of substrate (0.05 - 3 mM) in presence and absence of compound 4 (Atglistatin). […] Data are presented as mean +/-S.D. of triplicate determinations. Data for compound 4 are representative for at least three independent experiments. • Figure 2. Selectivity of Atglistatin. Lipase activity of ATGL, HSL, lipoprotein lipase, and pancreatic lipase was determined using triolein as substrate. MGL activity was detected in the presence of rac-(1,3)-monooleoylglycerol as substrate. Inhibitors were solubilized in DMSO and added at the indicated concentrations. DMSO alone was used as negative control. (A) Dose-dependent inhibition of TG hydrolase activity in WAT lysates obtained from wild-type and ATGL-ko mice. (B) Inhibition of TG hydrolase activity in wild-type WAT lysates by Atglistatin (40 µM) and by the HSL inhibitor Hi 76-0079 (20 µM). (C) Effect of Atglistatin on murine MGL (purified from E. coli), and murine HSL (overexpressed in COS-7 lysates) activity. […] The release of FA (A) and glycerol (B) in the media was determined using commercial kits. […] At the indicated timepoints blood was taken retroorbitally and plasma parameters were measured using commercial kits. […] 8 h after gavage blood was taken retroorbitally and plasma parameters were measured using commercial kits. […]"}},
  "data": [
    {"smiles": "CN(C)C(=O)Nc1cccc(-c2ccc(N(C)C)cc2)c1", "note": "[Atglistatin, atglistatin]", "values": [
      {"measurement": "cell viability (cytotoxicity assays)", "setting": "[1]", "value": "only a very moderate decrease in cell viability"},
      {"measurement": "effect on pancreatic lipase", "setting": "[2]", "value": "only minor effects"},
      {"measurement": "inhibition of TG hydrolase activity of wild-type WAT", "setting": "[3]", "value": "up to 78%"},
      {"measurement": "basal lipolysis", "setting": "[4]; dose dependent (0-50 µM)", "value": "reduced basal lipolysis"},
      {"measurement": "reduction of forskolin-stimulated FA release", "setting": "[4]; up to, 10 µM forskolin", "value": "up to 72%"},
      {"measurement": "reduction of forskolin-stimulated glycerol release", "setting": "[4]; up to, 10 µM forskolin", "value": "≤ 66", "unit": "%"}
    ]}
  ]
}
